Assay results as given in patent US20120016010A1, “RNA Interference Mediated Inhibition of BTB and CNC Homology 1, Basic Leucine Zipper Transcription Factor 1 (BACH1) Gene Expression Using Short Interfering Nucleic Acid (siNA)” (Merck Sharp & Dohme Corp, priority 2009, published 2012).

Experiments:
Format in all cases: cell-based
[1] = test system: HMOX1 mRNA; test: HMOX1 (HO-1) mRNA upregulation in human bronchial epithelial cells (NHBE); conditions: 48 hours post transfection, mean of 3 donors
Method: Human Bronchial Epithelial cells (NHBE cells) obtained from Lonza (Cat. No. CC-2540) were grown at 37deg in the presence of 5% CO2 and cultured in BEBM basal medium (Lonza, Cat. No. CC-3171) on Biocoat Collagen1 coated flasks (Becton Dickinson). NHBE cells were plated in collagen 1 coated plates and cultured in appropriate culture media. The cells were cultured for 24 hours after plating at 37 degrees in the presence of 5% CO2. siNAs were diluted in OptiMEM 1 to 1 uM and the transfection agent to 25 ug/ml. For formulation of the siNAs equal volumes of the diluted siNA and delivery lipid were combined and incubated for 20 minutes at room temperature. Cells were meanwhile trypsinised and resuspended in antibiotic free BEBM media at 150,000 cells/ml. 20 ul of the formulated siNA and 80 ul of BEBM media was added per well of a 96 well plate (6 replicates/data point/siNA concentration) so as to give a nine point dose range of the siNAs (100 nM, 30 nM, 10 nM, 3 nM, 1 nM, 0.3 nM, 0.1 nM, 0.03 nM, 0.01 nM). The time of incubation with the transfection-siNA complexes were 48 hours with one change of media at 24 hours. Total RNA was isolated from the cells in the 96-well plate format using the Automated SV96 Total RNA Isolation System (Promega) according to the manufacturer's instructions. The Biomek 2000 Laboratory Automation Workstation (Beckman Coulter) was used to apply the transfected cell lysates to a silica membrane. RNase-Free DNase I was then applied directly to the silica membrane to digest contaminating genomic DNA. The bound total RNA was further purified from contaminating salts, proteins and cellular impurities by simple washing steps. Finally, total RNA was eluted from the membrane by the addition of Nuclease-Free Water. A series of probes and primers were used for the detection of mRNA transcripts of Bach1, OAS1, IL8 and GAPDH (as control/normalisation) in the human cell lines. The assays were performed on an ABI 7900HT instrument according to the manufacturer's instructions. Primer Probe sets used: With Taqman data critical threshold values (Ct) were converted to copy numbers corresponding to the particular gene analysed in each well of the 384 well plate. Six identical wells were prepared in each plate for a given treatment. […] Relative abundance (aka relative expression) of a gene was determined by dividing the mean copy number of that gene with its GAPDH counterpart in that particular sample. EC50 values were calculated from the data using sigma plot. All calculations of the efficacy and potency of the siNAs were done relative to the non-targeting control siNA. Percentage knockdown was compared between the four lead siNA's. The data was analysed using an ANOVA test and then the p-values were corrected for multiple comparisons using the False Discovery Rate correction (FDR).

[2] = test system: Bach1 mRNA; test: Initial screen: Bach1 mRNA knock-down in human A549 cells (96-well transfection, quantitative RT-PCR); conditions: for % KD: Bach1 mRNA, 10 nM siNA, human A549 cells, n = 2, mean ± S.D., normalized to GAPDH and non-targeting control, 24 hrs post-transfection; for % KD Bach1: Table 5, Bach1 mRNA screening data, A549 cells
[3] = test system: Bach1 mRNA; test: Initial screen: Bach1 mRNA knock-down in mouse NIH 3T3 cells (96-well transfection, quantitative RT-PCR); conditions: mouse NIH3T3 cells, n = 2, 24 hrs post-transfection, protocol 10 nM siNA

Substance	EC50 [1] [nM]	Maximum HMOX1 upregulation [1] [%]	% KD [2] [%]	% KD Bach1 [2] [%]	% KD [3] [%]
29988-DC (sense AUUUGAACCUUUAAUUCAGTT; antisense CUGAAUUAAAGGUUCAAAUUU; inverted abasic end caps, TT overhangs, modified nucleotides, further chemistry not given here)	34.5	550	86.2 ± 3.1	86.2 ± 3.1	71.3 ± 8.9
29947-DC (sense GGAAUCCUGCUUUCAGUUUTT; antisense AAACUGAAAGCAGGAUUCCUU; inverted abasic caps (B), 2'-modified nucleotides, further chemistry not given here)	–	1566	83.4 ± 6.9	83.4 ± 6.9	46 ± 5.8
29957-DC (sense GCAGUUACUUCCACUCAAGTT; antisense CUUGAGUGGAAGUAACUGCUU; inverted abasic end caps, TT overhangs, modified nucleotides, further chemistry not given here)	29.8	290	84.6 ± 5.4	84.6 ± 5.4	42.4 ± 1.2
29964-DC (sense GAUUUGCAGGUGAUGUUAATT; antisense UUAACAUCACCUGCAAAUCUU; inverted abasic end caps, TT overhangs, modified nucleotides, further chemistry not given here)	30.3	4800	90.1 ± 0.8	90.1 ± 0.8	19.6 ± 3.9
29956-DC (sense GUCUGAGUGUCCGUGGUUATT; antisense UAACCACGGACACUCAGACUU; inverted abasic caps (B), 2'-modified nucleotides, further chemistry not given here)	33.1	2416	75.8 ± 7.7	75.8 ± 7.7	−14.5 ± 8.4
29961-DC (sense CUACACUGCUAAACUGAUUTT; antisense AAUCAGUUUAGCAGUGUAGUU; inverted abasic end caps, TT overhangs, modified nucleotides, further chemistry not given here)	50.4	10266	90 ± 1.3	90 ± 1.3	−23.5 ± 4.6
29984-DC (sense GUUAAAGGAUUUGAACCUUTT; antisense AAGGUUCAAAUCCUUUAACUU; inverted abasic end caps, TT overhangs, modified nucleotides, further chemistry not given here)	–	153	66.2 ± 15.3	–	50.5 ± 0.8
